Results taken from patent publication US4159263A, “(D-Ala^5)-somatostatin and analogues thereof” (American Home Products Corporation, priority 1977, dated 1979).
Positions of bridges follow the written chain, without caps; N, C: chain ends. Non-standard residues stand in square brackets, D forms with d. Residues, ends and D or L forms follow the SMILES beside them.

Experiments:
[1] = tested on: glucagon; assay: Arginine-stimulated glucagon secretion in Nembutal-anesthetized rats, radioimmunoassay of blood; details: for Glucagon: albino male rats, subcutaneous
Method: Albino male rats were administered Nembutal intraperitoneally at a dose of 50 milligrams per kilogram. Fifteen minutes later a subcutaneous injection of the test compound or physiological saline was administered. Ten minutes later 0.5 milliliters of arginine (300 milligrams per milliliter, pH 7.2) is injected into the heart. Five minutes after receipt of the arginine the rats are decapitated and blood is collected into trasylol-EDTA. An appropriate aliquot was assayed for growth hormone, insulin and glucagon by radioimmunoassay.

[2] = tested on: insulin; assay: Arginine-stimulated insulin secretion in Nembutal-anesthetized rats, radioimmunoassay of blood; assay type: in vivo; details: for Insulin: albino male rats, subcutaneous
Text: (§1) The results of the assay are as follows:

[3] = tested on: growth hormone; assay: Arginine-stimulated growth hormone secretion in Nembutal-anesthetized rats, radioimmunoassay of blood; assay type: in vivo; details: for GH: albino male rats, subcutaneous
Text: as §1

For `C[C@H](N)C(=O)NCC(=O)N[C@H]1CSSC[C@@H](C(=O)O)NC(=O)[C@H](CO)NC(=O)[C@H]([C@@H](C)O)NC(=O)[C@H](Cc2ccccc2)NC(=O)[C@H]([C@@H](C)O)NC(=O)[C@H](CCCCN)NC(=O)[C@@H](Cc2c[nH]c3ccccc23)NC(=O)[C@H](Cc2ccccc2)NC(=O)[C@H](Cc2ccccc2)NC(=O)[C@@H](C)NC(=O)[C@H](CCCCN)NC1=O` [L-Alanylglycyl-L-cysteinyl-L-lysyl-D-alanyl-L-phenylalanyl-L-phenylalanyl-D-tryptophyl-L-lysyl-L-threonyl-L-phenylalanyl-L-threonyl-L-seryl-L-cysteinecyclic (3→14)-disulfide, triacetate] (H-AGCK[dA]FF[dW]KTFTSC-OH; disulfide 3-14), the Glucagon ([1]; dose 10 ug/kg, control 92 ± 23, *not significant) was 78 ± 7 pg/mL, the Glucagon ([1]; dose 1,000 ug/kg, control 42 ± 3) was 40 ± 6 pg/mL and the “effect on glucagon levels (summary in words)” value ([1]; summary of rat results) was “without materially affecting glucagon levels”. It also gave an Insulin ([2]; dose 10 ug/kg, control 321 ± 49) of 215 ± 13 μU/ml, an Insulin ([2]; dose 100 ug/kg, control 339 ± 45) of 68 ± 11 μU/ml and an Insulin ([2]; dose 1,000 ug/kg, control 191 ± 11) of 42 ± 5 μU/ml. For the same compound, the “reducing secretion of insulin (summary in words)” value ([2]; summary of rat results) was “effective agent for reducing secretion of growth hormone and insulin”, the GH ([3]; dose 10 ug/kg, control 254 ± 40) was 53 ± 6 ng/mL and the GH ([3]; dose 100 ug/kg, control 526 ± 153) was 117 ± 31 ng/mL. The GH ([3]; dose 1,000 ug/kg, control 312 ± 63) was 34 ± 5 ng/mL and the “reducing secretion of growth hormone (summary in words)” value ([3]; summary of rat results) was “effective agent for reducing secretion of growth hormone”.
